From ChEMBL document CHEMBL3526145, “Metabolism, excretion, and pharmacokinetics of ((3,3-difluoropyrrolidin-1-yl)((2S,4S)-4-(4-(pyrimidin-2-yl)piperazin-1-yl)pyrrolidin-2-yl)methanone, a dipeptidyl peptidase inhibitor, in rat, dog and human” (Drug Metab Dispos, 2012)

Key:
[1] = Drug excretion in Sprague-Dawley rat urine at 5 mg/kg, po administered as single dose; assay type: ADME, organism-based; parameters: dose 5 mg/kg, route oral; conditions: read-out: Drug excretion
[2] = system: Homo sapiens; test: AUC (0 to infinity) in human at […], po administered as single dose; assay type: ADME, organism-based, Plasma; parameters: time infinity, route oral; conditions: in vivo
[3] = Drug recovery in beagle dog at 5 mg/kg, po administered as single dose; assay type: ADME, organism-based, Canis lupus familiaris; parameters: dose 5 mg/kg, route oral; conditions: in vivo, read-out: Drug recovery
[4] = Drug metabolism in bile of bile duct-cannulated female Sprague-Dawley rat assessed as PF-00734200 level at 5 mg/kg, po administered as single dose by LC-MS/MS method; assay type: ADME, organism-based; parameters: dose 5 mg/kg, route oral; conditions: in vivo
[5] = system: Homo sapiens; test: Cmax in human at […], po administered as single dose; assay type: ADME, organism-based; parameters: route oral; conditions: in vivo
[6] = Drug recovery in Sprague-Dawley rat at 5 mg/kg, po administered as single dose; assay type: ADME, organism-based; parameters: dose 5 mg/kg, route oral; conditions: in vivo, read-out: Drug recovery
[7] = Drug metabolism in bile of bile duct-cannulated male Sprague-Dawley rat assessed as PF-00734200 level at 5 mg/kg, po administered as single dose by LC-MS/MS method; assay type: ADME, organism-based; parameters: dose 5 mg/kg, route oral; conditions: in vivo
[8] = Drug recovery in bile of bile duct-cannulated Sprague-Dawley rat at 5 mg/kg, po administered as single dose by LC-MS/MS method; assay type: ADME, organism-based; parameters: dose 5 mg/kg, route oral; conditions: read-out: Drug recovery
[9] = Drug excretion in beagle dog urine at 5 mg/kg, po administered as single dose; assay type: ADME, organism-based, Canis lupus familiaris; parameters: dose 5 mg/kg, route oral; conditions: read-out: Drug excretion
[10] = system: Homo sapiens; test: AUC (0 to 168 hrs) in human at […], po administered as single dose; assay type: ADME, organism-based, Plasma; parameters: time < 168 hr, route oral; conditions: in vivo
[11] = Drug excretion in beagle dog feces at 5 mg/kg, po administered as single dose; assay type: ADME, organism-based, Canis lupus familiaris; parameters: dose 5 mg/kg, route oral; conditions: faeces, read-out: Drug excretion
[12] = Drug excretion in human feces at […], po administered as single dose; assay type: ADME, organism-based; parameters: route oral; conditions: faeces, read-out: Drug excretion
[13] = Drug excretion in Sprague-Dawley rat feces at 5 mg/kg, po administered as single dose; assay type: ADME, organism-based; parameters: dose 5 mg/kg, route oral; conditions: faeces, read-out: Drug excretion
[14] = Drug recovery in human at […], po administered as single dose; assay type: ADME, organism-based; parameters: route oral; conditions: in vivo, read-out: Drug recovery
[15] = Drug excretion in human urine at […], po administered as single dose; assay type: ADME, organism-based; parameters: route oral; conditions: read-out: Drug excretion
[16] = Retention time of the compound by HPLC method; assay type: physicochemical
[17] = Drug level in urine of beagle dog treated with [14C]PF-00734200 at 5 mg/kg, po administered as single dose by LC-MS/MS method; assay type: ADME, organism-based, Canis lupus familiaris; parameters: dose 5 mg/kg, route oral; conditions: in vivo
[18] = system: Plasma; test: Drug level in beagle dog plasma treated with [14C]PF-00734200 at 5 mg/kg, po administered as single dose by LC-MS/MS method; assay type: ADME, organism-based, Canis lupus familiaris; parameters: dose 5 mg/kg, route oral; conditions: in vivo
[19] = Drug level in urine of Sprague-Dawley rat treated with [14C]PF-00734200 at 5 mg/kg, po administered as single dose by LC-MS/MS method; assay type: ADME, organism-based; parameters: dose 5 mg/kg, route oral; conditions: in vivo
[20] = system: Plasma; test: Drug level in Sprague-Dawley rat plasma treated with [14C]PF-00734200 at 5 mg/kg, po administered as single dose by LC-MS/MS method; assay type: ADME, organism-based; parameters: dose 5 mg/kg, route oral; conditions: in vivo
[21] = system: Canis familiaris; test: Total drug level in beagle dog treated with [14C]PF-00734200 assessed as total radio activity at 5 mg/kg, po administered as single dose […]; assay type: ADME, organism-based, Canis lupus familiaris; parameters: dose 5 mg/kg, route oral; conditions: in vivo
[22] = Drug level in bile of bile duct-cannulated Sprague-Dawley rat treated with [14C]PF-00734200 at 5 mg/kg, po administered as single dose by LC-MS/MS method; assay type: ADME, organism-based; parameters: dose 5 mg/kg, route oral; conditions: in vivo
[23] = system: Rattus norvegicus; test: Total drug level in Sprague-Dawley rat treated with [14C]PF-00734200 assessed as total radio activity at 5 mg/kg, po administered as single dose […]; assay type: ADME, organism-based; parameters: dose 5 mg/kg, route oral; conditions: in vivo
[24] = target: T1, Cytochrome P450 2D6 (Homo sapiens, UniProt P10635); test: Drug level assessed as human CYP2D6-mediated compound formation from PF-00734200 by LC-MS/MS method; assay type: ADME; conditions: recombinant enzyme
[25] = system: Serum; test: Drug level in human serum treated with [14C]PF-00734200 at […], po administered as single dose by LC-MS/MS method; assay type: ADME, organism-based; parameters: route oral; conditions: in vivo
[26] = Drug level in feces of human treated with [14C]PF-00734200 at […], po administered as single dose by LC-MS/MS method; assay type: ADME, organism-based; parameters: route oral; conditions: in vivo
[27] = Drug level in urine of human treated with [14C]PF-00734200 at […], po administered as single dose by LC-MS/MS method; assay type: ADME, organism-based; parameters: route oral; conditions: in vivo
[28] = Drug level in feces of beagle dog treated with [14C]PF-00734200 at 5 mg/kg, po administered as single dose by LC-MS/MS method; assay type: ADME, organism-based, Canis lupus familiaris; parameters: dose 5 mg/kg, route oral; conditions: in vivo
[29] = target: T2, Cytochrome P450 3A4 (Homo sapiens, UniProt P08684); test: Drug level assessed as human CYP3A4-mediated compound formation from PF-00734200 by LC-MS/MS method; assay type: ADME; conditions: recombinant enzyme
[30] = system: Homo sapiens; test: Total drug level in human treated with [14C]PF-00734200 assessed as total radio activity at […], po administered as single dose […]; assay type: ADME, organism-based; parameters: route oral; conditions: in vivo
[31] = Drug level in feces of Sprague-Dawley rat treated with [14C]PF-00734200 at 5 mg/kg, po administered as single dose by LC-MS/MS method; assay type: ADME, organism-based; parameters: dose 5 mg/kg, route oral; conditions: in vivo
[32] = system: Homo sapiens; test: Cmax in human treated with [14C]PF-00734200 at […], po administered as single dose; assay type: ADME, organism-based; parameters: route oral; conditions: in vivo
[33] = system: Homo sapiens; test: Tmax in human treated with [14C]PF-00734200 at […], po administered as single dose; assay type: ADME, organism-based; parameters: route oral; conditions: in vivo
[34] = system: Homo sapiens; test: AUC (0 to infinity) in human treated with [14C]PF-00734200 at […], po administered as single dose; assay type: ADME, organism-based, Plasma; parameters: route oral, time infinity; conditions: in vivo
[35] = target: T2, Cytochrome P450 3A4; test: Drug metabolism assessed as human CYP3A4-mediated metabolite (3,3-difluoropyrrolidin-1-yl){(2S,4S)-4-[4-(5-hydroxypyrimidin-2-yl)piperazin-1-yl]pyrrolidin-2-yl}methanone formation by LC-MS/MS method; assay type: ADME; conditions: recombinant enzyme
[36] = system: Homo sapiens; test: AUC (0 to 168 hrs) in human treated with [14C]PF-00734200 at […], po administered as single dose; assay type: ADME, organism-based, Plasma; parameters: time < 168 hr, route oral; conditions: in vivo
[37] = system: Homo sapiens; test: Oral clearance in human treated with [14C]PF-00734200 at […], po administered as single dose; assay type: ADME, organism-based; parameters: route oral; conditions: in vivo
[38] = system: Homo sapiens; test: Elimination half life in human treated with [14C]PF-00734200 at […], po administered as single dose; assay type: ADME, organism-based; parameters: route oral; conditions: in vivo
[39] = target: T1, Cytochrome P450 2D6; test: Drug metabolism assessed as human CYP2D6-mediated metabolite (3,3-difluoropyrrolidin-1-yl){(2S,4S)-4-[4-(5-hydroxypyrimidin-2-yl)piperazin-1-yl]pyrrolidin-2-yl}methanone formation by LC-MS/MS method; assay type: ADME; conditions: recombinant enzyme

T2 sequence (P08684 whole entry): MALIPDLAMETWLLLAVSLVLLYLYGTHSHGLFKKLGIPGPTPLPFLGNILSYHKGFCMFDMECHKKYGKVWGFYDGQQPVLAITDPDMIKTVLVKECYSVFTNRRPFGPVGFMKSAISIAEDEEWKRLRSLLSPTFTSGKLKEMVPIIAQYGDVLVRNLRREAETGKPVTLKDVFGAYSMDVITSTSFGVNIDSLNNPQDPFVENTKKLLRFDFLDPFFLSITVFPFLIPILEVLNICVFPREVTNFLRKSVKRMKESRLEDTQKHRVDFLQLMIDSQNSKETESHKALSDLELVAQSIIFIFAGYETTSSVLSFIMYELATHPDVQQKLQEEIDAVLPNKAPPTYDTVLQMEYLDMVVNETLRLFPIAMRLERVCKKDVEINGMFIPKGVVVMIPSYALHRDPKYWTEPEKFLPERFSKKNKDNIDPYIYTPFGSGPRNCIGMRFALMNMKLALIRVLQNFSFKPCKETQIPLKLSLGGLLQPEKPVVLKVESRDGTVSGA
T1 sequence (P10635 whole entry): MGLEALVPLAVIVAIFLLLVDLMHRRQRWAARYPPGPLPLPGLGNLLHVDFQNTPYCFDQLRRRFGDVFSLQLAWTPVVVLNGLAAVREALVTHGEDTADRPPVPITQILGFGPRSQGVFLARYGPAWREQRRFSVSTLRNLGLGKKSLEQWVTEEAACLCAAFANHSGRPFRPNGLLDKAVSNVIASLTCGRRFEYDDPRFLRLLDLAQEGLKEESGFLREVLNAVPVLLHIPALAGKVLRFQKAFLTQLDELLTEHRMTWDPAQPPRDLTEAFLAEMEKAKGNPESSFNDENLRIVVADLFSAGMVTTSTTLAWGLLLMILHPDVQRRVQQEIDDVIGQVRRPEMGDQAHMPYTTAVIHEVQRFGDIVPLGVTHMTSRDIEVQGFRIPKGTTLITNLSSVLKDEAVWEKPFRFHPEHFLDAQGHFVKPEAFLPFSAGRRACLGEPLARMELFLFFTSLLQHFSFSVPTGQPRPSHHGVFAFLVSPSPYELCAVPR

SMILES	Retention_time [16]	Drug uptake [17]	Drug uptake [18]	Drug uptake [19]	Drug uptake [20]	Drug uptake [21]	Drug uptake [23]	Drug uptake [27]	Drug uptake [30]	Drug uptake [31]	other results
O=C([C@@H]1C[C@H](N2CCN([14c]3ncccn3)CC2)CN1)N1CCC(F)(F)C1	–	–	–	–	–	–	–	–	–	–	dose excreted [1]: 30.8%; AUC [2]: 2850 ng.Eq.hr/ml; dose excreted [3]: 92.2%; Drug metabolism [4]: metabolite_not_detected; Cmax [5]: 274 ng.Eq/ml; dose excreted [6]: 97.1%; Drug metabolism [7]: metabolite_not_detected; dose excreted [8]: 62.1%; dose excreted [9]: 66.7%; AUC [10]: 2490 ng.Eq.hr/ml; dose excreted [11]: 16.8%; dose excreted [12]: 10.4%; dose excreted [13]: 66%; dose excreted [14]: 87.2%; dose excreted [15]: 76.8%
NC(=O)N1C[C@@H](N2CCN(c3ncc(O)cn3)CC2)C[C@H]1C(=O)N1CCC(F)(F)C1	26 min	0.6%	–	–	–	–	–	–	–	–	–
O=C(O)[C@H]1O[C@@H](Oc2cnc(N3CCN([C@@H]4CN[C@H](C(=O)N5CCC(F)(F)C5)C4)CC3)nc2)[C@H](O)[C@@H](O)[C@@H]1O	14.3 min	1%	0.4%	2.9%	4.7%	1%	2.9%	–	–	–	Drug uptake [22]: 50.4%
O=C([C@@H]1C[C@H](N2CCN(c3ncc(O)cn3)CC2)CN1)N1CCC(F)(F)C1	25.5 min	30.1%	13.7%	7.3%	2.7%	39.1%	39.6%	17.9%	20.6%	32.3%	Drug metabolism [24]: metabolite_detected; Drug uptake [25]: 4%; Drug uptake [26]: 2.7%; Drug uptake [28]: 9%; Drug metabolism [29]: metabolite_detected
O=C(O)[C@H]1O[C@@H](OC(=O)N2C[C@@H](N3CCN(c4ncccn4)CC3)C[C@H]2C(=O)N2CCC(F)(F)C2)[C@H](O)[C@@H](O)[C@@H]1O	28.2 min	1.6%	1.5%	–	–	–	–	6%	6%	–	Drug uptake [25]: 1.2%
N=C(N)N1CCN([C@H]2C[C@@H](C(=O)N3CCC(F)(F)C3)N(C=O)C2)CC1	20.1 min	–	–	–	–	–	0.1%	0.1%	0.1%	0.1%	–
N=C(N)N1CCN([C@@H]2CN[C@H](C(=O)N3CCC(F)(F)C3)C2)CC1	3 min	1.2%	0.8%	3.1%	2.6%	5.8%	20.9%	–	3%	17.8%	Drug uptake [26]: 3%; Drug uptake [28]: 4.6%; Drug uptake [22]: 7.3%
O=C(O)[C@@H]1C[C@H](N2CCN(c3ncccn3)CC2)CN1	5.6 min	2.5%	1%	3.2%	8.4%	2.5%	5.5%	1.1%	2.3%	2.3%	Drug uptake [26]: 1.2%
NC(=O)N1C[C@@H](N2CCN(c3ncccn3)CC2)C[C@H]1C(=O)N1CCC(F)(F)C1	30.2 min	–	–	–	–	–	–	1%	1%	–	–
O=C([C@@H]1C[C@H](N2CCN(c3ncc(O)cn3)CC2)CN1[C@@H]1O[C@H](CO)[C@@H](O)[C@H](O)[C@H]1O)N1CCC(F)(F)C1	28.2 min	–	–	–	–	–	–	–	–	–	–
O=CN1C[C@@H](N2CCN(c3ncc(O)cn3)CC2)C[C@H]1C(=O)N1CCC(F)(F)C1	27.4 min	–	–	–	–	–	5.5%	–	–	5.5%	–
O=C([C@@H]1C[C@H](N2CCN(c3ncccn3)CC2)CN1[C@@H]1O[C@H](CO)[C@@H](O)[C@H](O)[C@H]1O)N1CCC(F)(F)C1	29.2 min	–	–	–	–	–	–	0.9%	0.9%	–	–
O=C([C@@H]1C[C@H](N2CCN(c3ncc(OS(=O)(=O)O)cn3)CC2)CN1)N1CCC(F)(F)C1	24.5 min	2.6%	1.8%	–	–	–	–	–	–	–	Drug uptake [22]: 2.1%
O=C(O)[C@H]1O[C@@H](OC(=O)N2C[C@@H](N3CCN(c4ncc(O)cn4)CC3)C[C@H]2C(=O)N2CCC(F)(F)C2)[C@H](O)[C@@H](O)[C@@H]1O	24.5 min	–	1.8%	–	–	–	–	–	–	–	–
c1cnc(N2CCNCC2)nc1 [2-PIPERAZIN-1-YL-PYRIMIDINE]	6.5 min	0.9%	0.7%	1.4%	1.7%	0.9%	1.4%	–	–	–	–
O=C([C@@H]1C[C@H](N2CCN(c3ncccn3)CC2)CN1)N1CCC(F)(F)C1 [GOSOGLIPTIN]	–	25.6%	80.1%	11%	79.9%	27.4%	12.1%	48.5%	48.9%	1.1%	Cmax [32]: 241.3 ng/mL; Tmax [33]: 1 h; Drug uptake [25]: 94.5%; Drug uptake [26]: 0.4%; AUC [34]: 2660 ng·h/mL; Drug uptake [28]: 1.8%; Drug metabolism [35]: metabolite_detected; AUC [36]: 2560 ng·h/mL; CL/F [37]: 125.3 mL/min; beta t1/2 [38]: 63.5 h; Drug metabolism [39]: metabolite_detected
